# Measurements taken from patent publication US20230107642A1 (Erasca, Inc., priority 2020, published 2023).
# Target: T1, Cys12 of the KRAS 4B G12C protein (Homo sapiens, UniProt P01116, G12C)
# T1 construct: This protein contained 188 amino acids in total, including an N-terminal 6-Histidine tag; made in house; host or cells: E. coli BL21
# Test: In vitro covalent adduct formation (CAF) assay, LC-MS intact mass
# Type: binding
# Settings: 10 uM compound, 60 min
# Procedure, shortened: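 GDP-loaded (>95%) His-TEV-tagged KRAS 4B G12C (residues 1–169), 5 μM in TBS pH 7.4, incubated with 10 μM compound (4% DMSO) at 22° C for one hour. Intact-protein LC-MS gave free:adduct ratios, reported as percent protein modified; duplicate runs.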
row,Compound,% CAF 10 uM @ 60 min
1,"C=CC(=O)N1C[C@H](C)N(c2nc(=O)n3c4c(c(-c5ccc(F)c(Cl)c5)c(C(F)(F)F)cc24)SC[C@@H]3COCOC)C[C@H]1C [Example 1363, (S)-7-((2S,5R)-4-acryloyl-2,5-dimethylpiperazin-1-yl)-10-(3-chloro-4-fluorophenyl)-3-((methoxymethoxy)methyl)-9-(trifluoromethyl)-2,3-dihydro-5H-[1,4]thiazino[2,3,4-ij]quinazolin-5-one]",92.1%
2,"C=CC(=O)N1[C@H](C)CN(c2nc(=O)n3c4c(c(-c5ccc(F)cc5)c(C(F)(F)F)cc24)SCC(CO)(CO)C3)C[C@@H]1C [Example 1430, 8-((3S,5R)-4-acryloyl-3,5-dimethylpiperazin-1-yl)-11-(4-fluorophenyl)-3,3-bis(hydroxymethyl)-10-(trifluoromethyl)-3,4-dihydro-2H,6H-[1,4]thiazepino[2,3,4-ij]quinazolin-6-one]",93%
3,C=CC(=O)N1C[C@H](C)N(c2nc(=O)n3c4c(c(-c5cc(Cl)c(F)cc5F)c(C(F)(F)F)cc24)SC[C@@H]3CN2C[C@@H]3C[C@H]2CO3)C[C@H]1C [Example 1304],87%
4,"C=CC(=O)N1[C@H](C)CN(c2nc(=O)n3c4c(c(-c5ccc(F)c(OC(F)F)c5)c(Cl)cc24)SC[C@@H]3COC)C[C@@H]1C [Example 1343, (S)-7-((3S,5R)-4-acryloyl-3,5-dimethylpiperazin-1-yl)-9-chloro-10-(3-(difluoromethoxy)-4-fluorophenyl)-3-(methoxymethyl)-2,3-dihydro-5H-[1,4]thiazino[2,3,4-ij]quinazolin-5-one]",96%
5,"C=CC(=O)N1[C@H](C)CN(c2nc(=O)n3c4c(c(-c5c(F)cc(F)cc5F)c(C(F)(F)F)cc24)SC[C@@H]3COC)C[C@@H]1C [Example 1374, (S)-7-((3S,5R)-4-acryloyl-3,5-dimethylpiperazin-1-yl)-3-(methoxymethyl)-9-(trifluoromethyl)-10-(2,4,6-trifluorophenyl)-2,3-dihydro-5H-[1,4]thiazino[2,3,4-ij]quinazolin-5-one]",88.5%
6,"C=CC(=O)N1[C@H](C)CN(c2nc(=O)n3c4c(c(-c5cc(Cl)c(F)cc5F)c(C(F)(F)F)cc24)SC[C@@H]3CN2CC[C@H](F)C2)C[C@@H]1C (atropisomer, axis not shown) [Example 1438, (3S,10S)-7-((3S,5R)-4-acryloyl-3,5-dimethylpiperazin-1-yl)-10-(5-chloro-2,4-difluorophenyl)-3-(((S)-3-fluoropyrrolidin-1-yl)methyl)-9-(trifluoromethyl)-2,3-dihydro-5H-[1,4]thiazino[2,3,4-ij]quinazolin-5-one]",54%
7,"C=CC(=O)N1[C@H](C)CN(c2nc(=O)n3c4c(c(-c5cc(Cl)c(F)cc5F)c(C(F)(F)F)cc24)SC[C@@H]3CN(C)C)C[C@@H]1C (atropisomer, axis not shown) [Example 1375, (3S,10R)-7-((3S,5R)-4-acryloyl-3,5-dimethylpiperazin-1-yl)-10-(5-chloro-2,4-difluorophenyl)-3-((dimethylamino)methyl)-9-(trifluoromethyl)-2,3-dihydro-5H-[1,4]thiazino[2,3,4-ij]quinazolin-5-one]",93.9%
8,"C=CC(=O)N1C2CCC1CN(c1nc(=O)n3c4c(c(-c5cc(Cl)c(F)cc5F)c(C(F)(F)F)cc14)SC[C@@H]3COC)C2 [Example 1394, (3S,10R)-7-((1R,5S)-8-acryloyl-3,8-diazabicyclo[3.2.1]octan-3-yl)-10-(5-chloro-2,4-difluorophenyl)-3-(methoxymethyl)-9-(trifluoromethyl)-2,3-dihydro-5H-[1,4]thiazino[2,3,4-ij]quinazolin-5-one]",93.5%

# Same assay, conditions: 10 uM compound, 60 min incubation
row,Compound,% CAF 10 uM @ 60 min
1,"C=CC(=O)N1[C@H](C)CN(c2nc(=O)n3c4c(c(-c5cccc6cnn(C)c56)c(C(F)(F)F)cc24)SC[C@@H]3COC)C[C@@H]1C (atropisomer, axis not shown) [Example 1130, (3S,10S)-7-((3S,5R)-4-acryloyl-3,5-dimethylpiperazin-1-yl)-3-(methoxymethyl)-10-(1-methyl-1H-indazol-7-yl)-9-(trifluoromethyl)-2,3-dihydro-5H-[1,4]thiazino [2,3,4-ij]quinazolin-5-one]",95.6%

# Same assay, conditions: 10 μM compound, after 1 hour
row,Compound,CAF (% after 1 hour)
1,"C=C(F)C(=O)N1[C@H](C)CN(c2nc(=O)n3c4c(c(-c5ccc(F)cc5F)c(C(F)(F)F)cc24)SC[C@@H](OC)C3)C[C@@H]1C [Example 1220, (3S)-11-(2,4-Difluorophenyl)-8-((3S,5R)-4-(2-fluoroacryloyl)-3,5-dimethylpiperazin-1-yl)-3-methoxy-10-(trifluoromethyl)-3,4-dihydro-2H,6H-[1,4]thiazepino[2,3,4-ij]quinazolin-6-one]",67%
2,"C=CC(=O)N1[C@H](C)CN(c2nc(=O)n3c4c(c(-c5cc(C)c(F)cn5)c(C(F)(F)F)cc24)SC[C@@H](OC)C3)C[C@@H]1C [Example 1209, (S)-8-((3S,5R)-4-acryloyl-3,5-dimethylpiperazin-1-yl)-11-(5-fluoro-4-methylpyridin-2-yl)-3-methoxy-10-(trifluoromethyl)-3,4-dihydro-2H,6H-[1,4]thiazepino[2,3,4-ij]quinazolin-6-one]",96%

# Same assay, conditions: after 60 min
row,Compound,CAF (% binding after 60 min)
1,"C=CC(=O)N1CCN(c2nc(=O)n3c4c(c(-c5ccc(F)cc5)c(C(F)(F)F)cc24)SC[C@H](OCCOC)C3)CC1 [Example 1016, (R)-8-(4-acryloylpiperazin-1-yl)-11-(4-fluorophenyl)-3-(2-methoxyethoxy)-10-(trifluoromethyl)-3,4-dihydro-2H,6H-[1,4]thiazepino[2,3,4-ij]quinazolin-6-one]",98%
2,"C=CC(=O)N1[C@H](C)CN(c2nc(=O)n3c4c(c(-c5ccc(F)cc5)c(C(F)(F)F)cc24)SC[C@@H](OCOC)C3)C[C@@H]1C [Example 1010, (S)-8-((3S,5R)-4-acryloyl-3,5-dimethylpiperazin-1-yl)-11-(4-fluorophenyl)-3-(methoxymethoxy)-10-(trifluoromethyl)-3,4-dihydro-2H,6H-[1,4]thiazepino[2,3,4-ij]quinazolin-6-one]",96%
3,"C=CC(=O)N1[C@H](C)CN(c2nc(=O)n3c4c(c(-c5ccc(F)c(Cl)c5)c(C(F)(F)F)cc24)SC[C@@H](OCCOC)C3)C[C@@H]1C [Example 1029, (S)-8-((3S,5R)-4-acryloyl-3,5-dimethylpiperazin-1-yl)-11-(3-chloro-4-fluorophenyl)-3-(2-methoxyethoxy)-10-(trifluoromethyl)-3,4-dihydro-2H,6H-[1,4]thiazepino[2,3,4-ij]quinazolin-6-one]",96%
4,"C=CC(=O)N1[C@H](C)CN(c2nc(=O)n3c4c(c(-c5cc(Cl)c(F)cc5F)c(C(F)(F)F)cc24)SC[C@H](OCCOC)C3)C[C@@H]1C [Example 1030, (3R)-8-((3S,5R)-4-acryloyl-3,5-dimethylpiperazin-1-yl)-11-(5-chloro-2,4-difluorophenyl)-3-(2-methoxyethoxy)-10-(trifluoromethyl)-3,4-dihydro-2H,6H-[1,4]thiazepino[2,3,4-ij]quinazolin-6-one]",96%
